Results reported in patent EP1338283A1, “Use of neoruscine to treat alopecia” (Pierre Fabre Dermo-Cosmetique, priority 2002, dated 2003).

Key:
VEGF = VEGF assay (ELISA) in supernatants of dermal papilla cell cultures; format: cell-based; details: néoruscine 50 µg/ml, 24 h treatment, dermal papilla cells, ELISA on supernatants
Method: La suspension de cellules de la papille dermique (10^6 cellules/2 ml) dans le DMEM 10 % SVF est distribuée dans les plaques 6 puits (10^6 cellules/puits) et incubée pendant 18 heures à 37°C dans une atmosphère à 5 % CO2. Les cellules de la papille folliculaire sont alors rincées avec du PBS pour éliminer les cellules non adhérentes puis exposées pendant 24 heures aux produits à tester inclus dans du DMEM sans SVF (qui pourrait interférer dans le dosage). Pour chaque produit testé, 3 puits sont réalisés.
L'extrait de Ruscus et la néoruscine purifiée sont testés en culture.
Après 24 heures de traitement, les surnageants sont récupérés, centrifugés puis conservés à -80°C avant leur utilisation ultérieure pour le dosage du VEGF.
La production du VEGF dans les surnageants est mesurée par Kit Elisa (R&D Biosystems). Les résultats sont exprimés en picogrammes de VEGF par 10^6 cellules et en pourcentages d'activité. Dans ce test la néoruscine à 50 µg/ml stimule la production du VEGF de 329 %.

gène du VEGF = assay: VEGF gene expression (RT-PCR) in dermal papilla cells; format: cell-based, humaine; details: néoruscine 50 µg/ml, 3 h incubation
Method: La suspension de cellules de la papille folliculaire (10^6 cellules par boîte de 25 cm^2) dans le milieu DMEM est distribuée dans les boîtes de culture puis incubés pendant 12 heures à 37°C dans une atmosphère à 5 % de CO2. Les CPD sont ensuite rincées avec du PBS pour éliminer les cellules non adhérentes.
Pour chaque lot, les cellules sont pré-incubées pendant 3 heures avec les produits à tester préparés dans du DMEM. Les cellules sont ensuite rincées deux fois au PBS.
Après rinçage au PBS, les boîtes de culture sont déposées sur de la glace. Les cellules sont traitées avec la solution d'extraction d'ARN, RNAβTM (1 ml/boîte).
Les lysats cellulaires sont ensuite récupérés, centrifugés après avoir ajouté du chloroforme. Trois phases sont alors observables • inférieure contenant les débris cellulaires - interface contenant l'ADN • […] supérieure avec l'ARN
Les surnageants sont prélevés, les ARN sont précipités avec de l'isopropanol. […]
La quantité d'ARN ainsi que la pureté sont déterminées par spectrophotométrie (Chomczynski P., Sacchi N. Anal. Biochem. 1987; 162: […]). […]
Une caméra UV permet de saisir l'image du gel et la quantification du volume et de l'intensité des bandes correspondant à l'ADNc du VEGF se fait à l'aide d'un logiciel d'analyse d'image.

[1] = system: gène cytochrome P450 aromatase; assay: Cytochrome P450 aromatase gene expression (RT-PCR) in dermal papilla cells; format: cell-based, humaine; details: néoruscine 5 µg/ml, 3 h exposure, human dermal papilla cells
Method: Nous avons évalué, dans le cadre de cet exemple, l'activité de la néoruscine sur la transcription du gène VEGF par les cellules de la papille dermique humaine en culture.
Les cellules de la papille dermique sont ensemencées à 10^6 cellules par boîte dans du DMEM à 10 % de SVF et 1 % de Pénicilline/Streptomycine pendant 24 heures à 37°C dans une atmosphère à 5 % CO2. Les cellules de la papille folliculaire sont alors rincées avec du PBS pour éliminer les cellules non-adhérentes puis exposées aux produits à tester dans du DMEM sans SVF (qui pourrait interférer dans le dosage) durant 3 heures.
Les principes actifs ont été testés en culture à des concentrations non cytotoxiques. Une boîte de culture est réalisée pour chaque lot.
Après rinçage au PBS, les boîtes de culture sont déposées sur de la glace. Les cellules sont traitées avec la solution d'extraction d'ARN, RNA βTM (1 ml/boîte). […]
Les surnageants sont prélevés, les ARN sont précipités avec de l'isopropanol. […] La quantité d'ARN ainsi que la pureté sont déterminées par spectrophotométrie.
L'ARN total (1 µg) est rétro-transcrit en ADN complémentaire une heure à 48°C avec le kit Access RT-PCR system (Promega). […] Une caméra UV permet de saisir l'image du gel et la quantification du volume et de l'intensité des bandes correspondant à l'ADNc et du cytochrome P450 aromatase se fait à l'aide d'un logiciel d'analyse d'image. […]

follicule pileux humain = assay: Growth of human hair follicle ex vivo; format: cell-based; details: 5 days of treatment, activity versus controls
Method: Les follicules pileux sont issus de scalp humain provenant du service de chirurgie plastique des hôpitaux ou des cliniques. La peau est rasée puis lavée dans 10 bains successifs de 10 min de PBS supplémentés d'antibiotiques (pénicilline 100 unités/ml et streptomycine 100 µg/ml). Les follicules en phase anagène reconnaissables car très vascularisés sont ensuite isolés de la peau sous la loupe binoculaire et débarrassés de la graisse. Ils sont ensuite incubés à 37°C dans des boîtes de culture dans du milieu de culture DMEM contenant le produit à tester. Le milieu de culture des follicules ne contient pas de sérum. Ce milieu est composé de 10µg/ml d'insuline, de 10 µg/ml de transferrine, de 10 µg/ml d'hydrocortisone, de 1% d'un mélange de pénicilline (100 uités /ml)-streptomycine (100µg/ml), de 2,5 µg/ml de fungizone et de la L-glutamine à 1mM.
Les follicules sont mis en présence de différentes concentrations de néoruscine (50, 100 et 300 µg/ml) (10 follicules par traitement). Les témoins sont cultivés dans du milieu sans produit.
La croissance de la tige des follicules pileux est mesurée à l'aide de papier millimétré sous loupe binoculaire au jour 0 et tous les jours pendant 5 jours. Une caméra numérique permet de saisir les images de follicules pileux et de calculer avec précision leur taux de croissance. Le pourcentage de croissance = (mesure Tx - mesure T0)/ mesure T0). [formula] […]

Substance: néoruscine
- stimule la production du VEGF (VEGF): 329%
- stimulation de la transcription du gène du VEGF (gène du VEGF): 24,5%
- stimule la transcription du gène cytochrome P450 aromatase [1]: 81%
- croissance des follicules pileux humains, activité du traitement (follicule pileux humain; néoruscine 100 µg/ml): 77,08%
- croissance des follicules pileux humains, activité du traitement (follicule pileux humain; néoruscine 300 µg/ml): 118,09%
